Laboratory results taken from US11365410B2, “Production and monitoring of metabolites in cells” (President and Fellows of Harvard College, priority 2015, dated 2022).

Experiments:
[1] = system: glucarate biosensor cdaR in BL21 cells; assay: Real-time glucarate monitoring from pathway intermediates with cdaR biosensor; format: cell-based, E. coli; details: strain with biosensor and biosynthesis pathway
Protocol: In representative examples, identical production conditions (genetics, media composition) were maintained but the exogenously supplemented precursor molecules were varied. […] The end-point fluorescence achieved by the addition of myo-inositol is just 20% that of glucuronate addition.
Glucarate production monitoring was carried out in BL21 cells doubly transformed with pJKR-H-cdaR and pJKR-GA-EXP. BL21 transformed with pJKR-H-cdaR alone was used as a control. Overnight cultures back-diluted 1:100 into Davis media supplemented with 5 g/L glucose. After four hours incubating at 200 RPM and 37° C., 150 μl of the log-phase cells were transferred to 96-well plates and exposed to 1 mM IPTG with the pathway intermediates described. […] End-point measurements were taken after eight hours. Glucarate production for titer measurement was carried out in BL21 transformed with pJKR-GA-EXP. An overnight culture was inoculated 1:100 into 1 mL of LB supplemented with 1 mM IPTG and the specified concentration of pathway intermediate. Production took place in 96-well blocks at 900 RPM and 37° C. for eight hours before supernatants were isolated and 0.2 μm filtered for LC/MS. All production runs were setup in triplicate. Error bars represent the 95% confidence interval derived from the standard error of the mean.

[2] = target: T1, TetR, regulator sequence SEQ ID NO: 13 (Escherichia coli, UniProt P04483); assay: cell-based; format: cell-based; details: anhydrotetracycline; for Fold Induction: 15 h; for EC50: lumped half-maximal parameter from Hill fit
T1 construct: expressed in transfected cells; host or cells: E. coli DH5alpha transformed with pJKR-H (high copy) or pJKR-L (low copy) plasmid
Source text: Plasmids were constructed using Gibson isothermal assembly methods (see Gibson, D. G., Young, L., Chuang, R. Y., Venter, J. C., Hutchison, C. A., 3rd and Smith, H. O. (2009) Enzymatic assembly of DNA molecules up to several hundred kilobases. Nat Methods, 6, 343-345 incorporated herein by reference in its entirety) and transformed into DH5α electrocompetent cells (New England Biolabs, Ipswich Mass.). All standard induction plasmids contained the rrnB strong terminator (see Orosz, A., Boros, I. and Venetianer, P. (1991) Analysis of the complex transcription termination region of the Escherichia coli rrnB gene. European journal of biochemistry/FEBS, 201, 653-659 incorporated herein by reference in its entirety) followed by the inducible promoter and the strong g10 RBS (see Olins, P. O., Devine, C. S., Rangwala, S. H. and Kavka, K. S. (1988) The T7 phage gene 10 leader RNA, a ribosome-binding site that dramatically enhances the expression of foreign genes in Escherichia coli. Gene, 73, 227-235 incorporated herein by reference in its entirety) ‘[…],’ (SEQ ID NO:1) driving the expression of sfGFP (see Pedelacq, J. D., Cabantous, S., Tran, T., Terwilliger, T. C. and Waldo, G. S. (2006) Engineering and characterization of a superfolder green fluorescent protein. […] GFP was followed by a transcriptional terminator prefixing the proB promoter (see Davis, J. H., Rubin, A. J. and Sauer, R. T. (2011) Design, construction and characterization of a set of insulated bacterial promoters. Nucleic acids research, 39, 1131-1141 incorporated herein by reference in its entirety) and strong RBS ‘[…],’ (SEQ ID NO:2) which facilitated expression of the transcriptional regulator. Each inducible system was implemented on high and low copy plasmids. High copy pJKR-H plasmids were constructed with the pUC origin and beta lactamase antibiotic resistance marker derived from pUC19 (New England Biolabs, Ipswich Mass.). Low copy pJKR-L plasmids were constructed in the same way, except that the pUC origin was replaced by the SC101 origin (including repA) from pSC101 obtained from American Type Culture Collection (ATCC #37032). […] The plasmids MphR-p15a-SPEC-mCherry and AcuR-colA-KAN-CFP were designed for compatible maintenance with pJKR-H-CdaR. In both these plasmids the antibiotic resistance gene and origin of replication were replaced with p15a-aadA and colA-kanR. Each enzyme was cloned downstream of the constitutive promoter P2 (see Mutalik, V. K., Guimaraes, J. C., Cambray, G., Lam, C., Christoffersen, M. J., Mai, Q. A., Tran, A. B., Paull, M., Keasling, J. D., Arkin, A. P. et al. (2013) Precise and reliable gene expression via standard transcription and translation initiation elements. Nat Methods, 10, 354-360 hereby incorporated by reference in its entirety) and g10 RBS to create pJKR-MIOX variants. These expression plasmids used the colA origin of replication and kanamycin resistance gene for maintenance. Sequences and plasmids are available on Addgene (plasmid numbers 62557-62570).
DH5α cells transformed with pJKR plasmids and maintained with carbenicillin were used in the induction assays. For each induction evaluation experiment, the cells were grown overnight to saturation before being diluted 1:100 into fresh LB media and incubated at 200 RPM and 37° C. After four hours, 150 μl of the log-phase cells were transferred to 96-well plates and stock inducer was added to achieve the desired range of induction concentrations. Three separate wells were inoculated and independently supplemented with the appropriate amount of inducing chemical for each level of induction. Measurements were made on the same Biotek (Winooksi, Vt.) HT plate reader using the same settings: excitation 485/20, emission 528/20, 37° C. and fast shaking. Fluorescence and absorbance were measured every 10 minutes for 15 hours. Fluorescence was measured in arbitrary units (AFU) while optical density was determined by absorbance (OD). […]

[3] = target: T2, AraC, regulator sequence SEQ ID NO: 10 (Escherichia coli, UniProt P0A9E0); assay: AraC biosensor induction (sfGFP reporter, Hill fit); format: cell-based, E. coli; details: arabinose
T2 construct: expressed in transfected cells; host or cells: E. coli DH5alpha transformed with pJKR-H (high copy) or pJKR-L (low copy) plasmid
Source text: (§1) Plasmids were constructed using Gibson isothermal assembly methods (see Gibson, D. G., Young, L., Chuang, R. Y., Venter, J. C., Hutchison, C. A., 3rd and Smith, H. O. (2009) Enzymatic assembly of DNA molecules up to several hundred kilobases. Nat Methods, 6, 343-345 incorporated herein by reference in its entirety) and transformed into DH5α electrocompetent cells (New England Biolabs, Ipswich Mass.). […] Each inducible system was implemented on high and low copy plasmids. High copy pJKR-H plasmids were constructed with the pUC origin and beta lactamase antibiotic resistance marker derived from pUC19 (New England Biolabs, Ipswich Mass.). Low copy pJKR-L plasmids were constructed in the same way, except that the pUC origin was replaced by the SC101 origin (including repA) from pSC101 obtained from American Type Culture Collection (ATCC #37032). […] In both these plasmids the antibiotic resistance gene and origin of replication were replaced with p15a-aadA and colA-kanR. Each enzyme was cloned downstream of the constitutive promoter P2 (see Mutalik, V. K., Guimaraes, J. C., Cambray, G., Lam, C., Christoffersen, M. J., Mai, Q. A., Tran, A. B., Paull, M., Keasling, J. D., Arkin, A. P. et al. (2013) Precise and reliable gene expression via standard transcription and translation initiation elements. Nat Methods, 10, 354-360 hereby incorporated by reference in its entirety) and g10 RBS to create pJKR-MIOX variants. These expression plasmids used the colA origin of replication and kanamycin resistance gene for maintenance. Sequences and plasmids are available on Addgene (plasmid numbers 62557-62570).
(§2) DH5α cells transformed with pJKR plasmids and maintained with carbenicillin were used in the induction assays. For each induction evaluation experiment, the cells were grown overnight to saturation before being diluted 1:100 into fresh LB media and incubated at 200 RPM and 37° C. […] Measurements were made on the same Biotek (Winooksi, Vt.) HT plate reader using the same settings: excitation 485/20, emission 528/20, 37° C. and fast shaking. Fluorescence and absorbance were measured every 10 minutes for 15 hours. Fluorescence was measured in arbitrary units (AFU) while optical density was determined by absorbance (OD). Normalized fluorescence was determined by dividing fluorescence by optical density for a given measurement. […]
(§3) The ratio of fluorescence to absorbance at 600 nm was used in order to compensate for changes in cell density over time and between experiments (AFU/OD). […] This transfer function is plotted on a log-log scale in FIG. 1A and FIG. 1B to capture the wide range of inducer concentrations and resulting fluorescence values. […]

[4] = target: MphR (E. coli), regulator sequence SEQ ID NO: 12 (Escherichia coli, UniProt Q9EVJ6); assay: MphR biosensor induction (sfGFP reporter, Hill fit); format: cell-based; details: erythromycin
Source text: as §1, §2, §3

E. coli DH5α cells = assay: Toxicity of inducer chemicals (growth)
Protocol: (§4) Growth rate was measured for each combination of chemical and concentration during the exponential phase of growth. Rates were normalized to the growth rate of cells without any added chemical and plotted as bar height. Concentration of each inducer is indicated in the table, corresponding to the bar chart by order and color. […] Inducer concentrations mirror the concentrations used in the induction experiments.
(§5) 150 μl of cells were transferred into 96-well plates and the assayed chemical was immediately added in triplicate before further incubation at 600 RPM and 37° C.
(§6) Toxicity of the inducer chemicals was measured to help guide the choice of inducer concentration for biosensor applications. In applications where maximum protein production is the goal, toxicity will be less of a consideration. In contrast, sub-toxic induction is important for complex circuits that require the cell to maintain a healthy cell state.

[5] = target: T3, TtgR (Pseudomonas putida), regulator sequence SEQ ID NO: 14 (Pseudomonas putida, UniProt Q9AIU0); assay: TtgR biosensor induction (sfGFP reporter, Hill fit); format: cell-based; details: naringenin
T3 construct: expressed in transfected cells; host or cells: E. coli DH5alpha transformed with pJKR-H (high copy) or pJKR-L (low copy) plasmid
Source text: as §1, §2, §3

DH5α cells = assay: Toxicity of inducer chemicals and solvents (growth); details: for effect on growth: arabinose high concentrations, glucarate highest concentration, ethanol low levels; for concentration at which toxicity was observed: E. coli without resistance gene
Protocol: as §4, §5, §6

TtgR biosensor = TtgR biosensor induction with phenol and related compounds; format: cell-based, E. coli; details: 0.1% phenol, 0.1% catechol, up to 0.4% benzene; fluorescence after 90 minutes
Protocol: All experiments were carried out in triplicate.
DH5α cells transformed with pJKR plasmids and maintained with carbenicillin were used in the induction assays. For each induction evaluation experiment, the cells were grown overnight to saturation before being diluted 1:100 into fresh LB media and incubated at 200 RPM and 37° C. After four hours, 150 μl of the log-phase cells were transferred to 96-well plates and stock inducer was added to achieve the desired range of induction concentrations. Three separate wells were inoculated and independently supplemented with the appropriate amount of inducing chemical for each level of induction. Measurements were made on the same Biotek (Winooksi, Vt.) HT plate reader using the same settings: excitation 485/20, emission 528/20, 37° C. and fast shaking. Fluorescence and absorbance were measured every 10 minutes for 15 hours. Fluorescence was measured in arbitrary units (AFU) while optical density was determined by absorbance (OD). Normalized fluorescence was determined by dividing fluorescence by optical density for a given measurement. Five independent wells containing control strains, transformed with pUC19, were included to provide a measurement of background autofluorescence.

O=C(O)[C@H]1OC(O)[C@H](O)[C@@H](O)[C@@H]1O (mixture of isomers) [glucuronate]
end-point fluorescence relative to that of glucarate ([1]; eight hours): 80%

Cc1c2c(c(O)c3c(O)cccc13)C(=O)[C@]1(O)C(=O)C(C(N)=O)=C(O)[C@@H](N(C)C)[C@@H]1C2 [Anhydrotetracycline, anhydrotetracycline]
Hill Coefficient ([2]; high copy): 4.2 ± 0.1
Max Expression Velocity ([2]; high copy): 1760 ± 10 s⁻¹
Fold Induction ([2]; high copy): 63 ± 3 fold
EC50 ([2]; high copy): 0.081 ± 0.001 µM
Hill Coefficient ([2]; low copy): 3.1 ± 0.3
Max Expression Velocity ([2]; low copy): 116 ± 2 s⁻¹
Fold Induction ([2]; low copy): >50 fold
EC50 ([2]; low copy): 0.054 ± 0.002 µM

OC1OC[C@H](O)[C@H](O)[C@H]1O (stereo partly shown) [Arabinose, arabinose]
Hill Coefficient ([3]; high copy): 1.3 ± 0.1
Max Expression Velocity ([3]; high copy): 3150 ± 60 s⁻¹
Hill Coefficient ([3]; low copy): 1.3 ± 0.2
Max Expression Velocity ([3]; low copy): 1260 ± 50 s⁻¹

CC[C@H]1OC(=O)[C@H](C)[C@@H](O[C@H]2C[C@@](C)(OC)[C@@H](O)[C@H](C)O2)[C@H](C)[C@@H](O[C@@H]2O[C@H](C)C[C@H](N(C)C)[C@H]2O)[C@](C)(O)C[C@@H](C)C(=O)[C@H](C)[C@@H](O)[C@]1(C)O [Erythromycin, erythromycin]
Hill Coefficient ([4]; high copy): 1.6 ± 0
Max Expression Velocity ([4]; high copy): 2070 ± 20 s⁻¹
Hill Coefficient ([4]; low copy): 1.6 ± 0.1
Max Expression Velocity ([4]; low copy): 66 ± 1 s⁻¹
Toxicity in induction experiment (E. coli DH5α cells; 1400 μM and 450 μM erythromycin, low-copy MphR): high toxicity
Toxicity (E. coli DH5α cells; with eryR, erythromycin up to 1.4 mM): only slight toxicity

O=C1C[C@@H](c2ccc(O)cc2)Oc2cc(O)cc(O)c21 [Naringenin, naringenin]
Hill Coefficient ([5]; high copy): 3.8 ± 0.6
Max Expression Velocity ([5]; high copy): 180 ± 6 s⁻¹
Hill Coefficient ([5]; low copy): 2.3 ± 0.4
Max Expression Velocity ([5]; low copy): 25 ± 1 s⁻¹

Cc1c2c(c(O)c3c(O)cccc13)C(=O)[C@]1(O)C(=O)C(C(N)=O)=C(O)[C@@H](N(C)C)[C@@H]1C2 [anhydrotetracycline]
concentration at which growth defect was observed (DH5α cells; E. coli, defect likely due to solvent ethanol): 0.43 µM

O=C[C@@H](O)[C@H](O)[C@H](O)CO [arabinose]
effect on growth (DH5α cells): higher growth rates

c1ccccc1 [benzene]
fluorescent response of TtgR biosensor (TtgR biosensor): background levels of fluorescence

CC[C@H]1OC(=O)[C@H](C)[C@@H](O[C@H]2C[C@@](C)(OC)[C@@H](O)[C@H](C)O2)[C@H](C)[C@@H](O[C@@H]2O[C@H](C)C[C@H](N(C)C)[C@H]2O)[C@](C)(O)C[C@@H](C)C(=O)[C@H](C)[C@@H](O)[C@]1(C)O [erythromycin]
concentration at which toxicity was observed (DH5α cells): ≥ 50 µM
concentration up to which only slight toxicity was observed (DH5α cells; with expression of the erythromycin resistance gene (eryR)): up to 1.4 mM

CCO [ethanol]
effect on growth (DH5α cells): more modest growth benefits

O=C(O)[C@@H](O)[C@@H](O)[C@H](O)[C@@H](O)C(=O)O [glucarate]
effect on growth (DH5α cells): more modest growth benefits

O[C@H]1[C@H](O)[C@@H](O)[C@H](O)[C@@H](O)[C@H]1O [myo-inositol]
lag of fluorescence response behind glucuronate [1]: 60 min
end-point fluorescence relative to that of glucuronate addition ([1]; eight hours): 20%

O=C1C[C@@H](c2ccc(O)cc2)Oc2cc(O)cc(O)c21 [naringenin]
concentration at which toxicity was observed (DH5α cells): ≥ 330 µM

Oc1ccccc1 [phenol]
fluorescent response of TtgR biosensor (TtgR biosensor): activated the sensor
